SMILES	CH4 permeability [Barrer]	CO2 permeability [Barrer]	N2 permeability [Barrer]	O2 permeability [Barrer]	H2 permeability [Barrer]
*/N=C1/c2cc(C(c3ccc4c(c3)C(=O)n3c-4nc4c(Oc5ccc(*)c(*)c5)cccc43)(C(F)(F)F)C(F)(F)F)ccc2C(=O)N1* (repeat unit)	0.54	27.6	1.22	7.9	–
*=CC1CC(C=*)C2C(=O)N(C34CC5CC(CC(C5)C3)C4)C(=O)C12 (repeat unit)	0.58	8.39	0.5	1.59	12.8
*=CC1CC(C=*)C2C(=O)N(C3CCCC3)C(=O)C12 (repeat unit)	0.54	8.8	0.45	1.95	–
*=CC1CC(C=*)C2C(=O)N(C3CCCCC3)C(=O)C12 (repeat unit)	0.8	13.7	0.52	2.21	16.1
*=CC1CC(C=*)C2C(=O)N(c3ccccc3)C(=O)C12 (repeat unit)	0.54	11.4	0.31	1.44	11
*=CC1CC(C=*)C2C1C([Si](O[Si](C)(C)C)(O[Si](C)(C)C)O[Si](C)(C)C)C2[Si](O[Si](C)(C)C)(O[Si](C)(C)C)O[Si](C)(C)C (repeat unit)	300	1160	100	295	690
*C(C)=C(*)CCCCCC (repeat unit)	64	230	23	60	140
*C(C)=C(*)CCCCCCC (repeat unit)	83.5	290	29	72.5	145
*C(C)=C(*)c1ccccc1 (repeat unit)	5.2	174	12.2	36.8	199
*C(F)(F)C1(F)OC(F)(F)C(F)(F)C1(F)C(*)(F)F (repeat unit)	2	35	5	16	59
*C/C(C)=C(\C)C* (repeat unit)	0.786	7.47	0.472	2.1	17
*C/C=C(/C)C* (repeat unit)	29.6	153	8.75	23.3	49
*C/C=C(/Cl)C* (repeat unit)	3.28	25.6	2.07	4	20.6
*C1C(*)C2CC1C1CC([Si](C)(C)C)C21 (repeat unit)	1010	5300	390	990	2060
*C1C(*)C2CC1C1C[CH]([Ge]([CH3])([CH3])[CH3])C21 (repeat unit)	620	–	–	–	–
*C=C(*)C(C)(C)C (repeat unit)	85	560	43	130	–
*C=CCCC* (repeat unit)	430	2000	100	310	415
*CC(*)(C)C(=O)OC (repeat unit)	0.00565	0.35	0.0113	0.0885	4.1
*CC(*)(C)C(=O)OC(C)(C)C (repeat unit)	0.719	15.1	0.768	4.53	62.2
*CC(*)(C)C(=O)OCCOCCOCC (repeat unit)	11.4	133	3.6	11.4	–
*CC(*)(C)C(=O)OCCOCCOCCOCC (repeat unit)	4.8	74.4	2	3.9	–
*CC(*)C(=O)OCC(F)(F)C(F)(F)C(F)(F)C(F)(F)C(F)(F)C(F)(F)C(F)(F)F (repeat unit)	57	520	54	135	300
*CC(*)C(=O)OCCCCCCCCCCCCCC (repeat unit)	65.1	297	22.1	57.1	96.2
*CC(*)Cl (repeat unit)	0.0263	0.16	0.0109	0.0453	1.79
*CC(*)OC(=O)c1cccc(C)c1 (repeat unit)	0.118	2.13	0.0875	0.496	–

SMILES	CH4 permeability [Barrer]	CO2 permeability [Barrer]	N2 permeability [Barrer]	O2 permeability [Barrer]	H2 permeability [Barrer]
*CC(*)OC(=O)c1ccccc1C (repeat unit)	0.115	2.23	0.0859	0.47	–
*CC(*)c1ccc(Br)cc1 (repeat unit)	0.48	8.5	0.32	1.9	–
*CC(*)c1ccc(C(C)(C)C)cc1 (repeat unit)	16.7	140	8.4	35.5	–
*CC(*)c1ccc(C[Si](C)(C)C)cc1 (repeat unit)	7.8	79.8	–	19.9	54
*CC(*)c1ccc(F)cc1 (repeat unit)	1.06	17.2	0.83	4.4	–
*CC(*)c1ccc(S(=O)(=O)[O-])cc1 (repeat unit)	0.119	4.15	0.101	0.845	10.8
*CC(*)c1ccc([Si](C)(C)CCCC(F)(F)F)cc1 (repeat unit)	22	284	11.8	38.1	109
*CC(*)c1ccccc1 (repeat unit)	0.785	12.4	0.53	2.9	26.1
*CC(*)c1ccncc1 (repeat unit)	0.14	3.31	0.13	0.84	12.6
*CC(C)C(=O)OCCOC(=O)C(C)C* (repeat unit)	4.8	95	1.6	4.7	15
*CC(C)O* (repeat unit)	34	190	11	28	42
*CC(O)C* (repeat unit)	0.019	0.4	0.015	0.1	–
*CC=C(C*)[Si](C)(C)OC(C)C (repeat unit)	3.1	23.2	1.5	6	–
*CC=C(C*)[Si](C)(OC(C)C)OC(C)C (repeat unit)	63.2	345	25.4	69.2	–
*CC=C(C*)[Si](OC(C)C)(OC(C)C)OC(C)C (repeat unit)	263	1230	109	247	–
*CCO* (repeat unit)	4.85	40.5	1.32	4.34	6.9
*CN1CN(*)Cc2cc3c(cc21)C1c2ccccc2C3c2cc(*)c(*)cc21 (repeat unit)	562	6830	409	1900	6390
*CN1CN(*)c2cc3c(cc21)C1(C)CCC3(C)c2cc(*)c(*)cc21 (repeat unit)	222	–	187	933	4440
*C[Si](*)(C)C (repeat unit)	130	549	38	99	–
*Nc1c(C)cc(Cc2cc(C)c(NC(=O)c3ccc(Oc4cc(C(C)(C)C)c(Oc5ccc(C(*)=O)cc5)cc4C(C)(C)C)cc3)c(C(C)C)c2)cc1C(C)C (repeat unit)	1.21	27	1.18	6.47	–
*Nc1ccc(*)cc1 (repeat unit)	0.0094	0.67	0.0165	0.135	3.66
*Nc1ccc(C(C)(C)c2ccc(NC(=O)c3ccc(Oc4cc(C(C)(C)C)c(Oc5ccc(C(*)=O)cc5)cc4C(C)(C)C)cc3)c(C)c2)cc1C (repeat unit)	0.9	21	0.81	4.5	–
*Nc1ccc(C(C)(C)c2ccc(NC(=O)c3ccc(Oc4cc(C(C)(C)C)c(Oc5ccc(C(*)=O)cc5)cc4C(C)(C)C)cc3)cc2)cc1 (repeat unit)	0.47	13	0.46	3.11	–
*Nc1ccc(C(c2ccc(NC(=O)c3cc(C(*)=O)cc(-c4ccccc4)c3)cc2)(C(F)(F)F)C(F)(F)F)cc1 (repeat unit)	0.78	21	1.2	5.5	42
*Nc1ccc(Cc2ccc(NC(=O)CN3C(=O)c4ccc(C(*)=O)cc4C3=O)cc2)cc1 (repeat unit)	0.01	0.264	0.017	0.065	–

Source: a polymer gas permeability compilation
